Results published in article PMC11278161 (Marine Drugs, 2024).
*1 amine or outer side, *2 acyl side, *3 side chain or, on linkers, in order; H or OH if unused. Where a SMILES comes first, the peptide text is derived from it. Bridges are numbered along the chain shown (N, C = ends). X1 = CC[C@@]1(OC(=O)CCC(=O)NCCOCCOCCOCCn2cc(COc3cc(C[*:1])cc(C[*:2])c3)nn2)C(=O)OCc2c1cc1n(c2=O)Cc2cc3ccccc3nc2-1; X2 = CC[C@@]1(OC(=O)Cn2cc(COc3cc(C[*:1])cc(C[*:2])c3)nn2)C(=O)OCc2c1cc1n(c2=O)Cc2cc3ccccc3nc2-1

System: A549 cells
Conditions: human

Compound | IC50
CC[C@H](C)[C@@H]1NC(=O)[C@H](CC(N)=O)NC(=O)[C@@H]2CCCN2C(=O)[C@H](CC(N)=O)NC(=O)[C@H](CC(N)=O)NC(=O)[C@H](C(C)C)NC(=O)[C@H](CCCNC(=N)N)NC(=O)[C@@H]2CSSC[C@H](NC(=O)CNC(=O)[C@@H](N)CO)C(=O)N[C@@H](CSCc3cc(cc(OCc4cn(CC(=O)O[C@]5(CC)C(=O)OCc6c5cc5n(c6=O)Cc6cc7ccccc7nc6-5)nn4)c3)CSC[C@@H](C(N)=O)NC1=O)C(=O)N[C@@H](CO)C(=O)N[C@@H](CC(N)=O)C(=O)N1CCC[C@H]1C(=O)N[C@@H](C)C(=O)N2 [LsIA[2,4]-8] (H-SGCCSNPACRVNNPNIC-NH2; disulfide 3-9; linker 4-17 via X2) | 216 nM
CC[C@H](C)[C@@H]1NC(=O)[C@H](CC(N)=O)NC(=O)[C@@H]2CCCN2C(=O)[C@H](CC(N)=O)NC(=O)[C@H](CC(N)=O)NC(=O)[C@H](C(C)C)NC(=O)[C@H](CCCNC(=N)N)NC(=O)[C@@H]2CSSC[C@H](NC(=O)CNC(=O)[C@@H](N)CO)C(=O)N[C@@H](CSCc3cc(cc(OCc4cn(CCOCCOCCOCCNC(=O)CCC(=O)O[C@]5(CC)C(=O)OCc6c5cc5n(c6=O)Cc6cc7ccccc7nc6-5)nn4)c3)CSC[C@@H](C(N)=O)NC1=O)C(=O)N[C@@H](CO)C(=O)N[C@@H](CC(N)=O)C(=O)N1CCC[C@H]1C(=O)N[C@@H](C)C(=O)N2 [LsIA[2,4]-9] (H-SGCCSNPACRVNNPNIC-NH2; disulfide 3-9; linker 4-17 via X1) | 338 nM
